Experimental data from article PMC3580115 (Journal of natural products, 2012).
Values after ≈ are worked out from the molar mass of the structure shown. Like-named read-outs stand apart in the source and are kept apart here.

Assays:
[1] = from bulbs of Z. candida; cited from earlier work
[2] = MTT cytotoxicity assay, panel statement over the five cancer cell lines; type: cell-based, human; settings: human
[3] = test system: five human cancer cell lines; experiment: as above; type: cell-based; settings: for selectivity index compared to the Beas-2B cell line: cancer cell lines versus Beas-2B
[4] = comparison in words, Table S1 not available

Row | SMILES | IC50 at 48 h [2] [µM] | further results
1 | O=C1N[C@H]2[C@H](O)[C@H](O)[C@@H](O)C[C@@H]2c2cc3c(c(O)c21)OCO3 (relative stereo) [trans-dihydronarciclasine] |  | IC50 as cytostatic agent [1]: 3.2 ng/mL (≈ 0.0103 µM)
2 | CO[C@@H]1C=C[C@@]23c4cc5c(cc4C(O)[N+](C)(C[C@@H]2O)[C@H]3C1)OCO5.[Cl-] (stereo partly drawn) [Compound 1, N-methylhaemanthidine chloride] | 0.81 to 13 | selectivity index compared to the Beas-2B cell line [3]: ≤ 10; cytotoxicity compared with positive control cis-platin [3, 4]: more potent cytotoxicity than one of the positive controls (cis-platin)
3 | CO[C@@H]1C=C[C@@]23c4cc5c(cc4CN(C[C@@H]2O)[C@H]3C1)OCO5 [Compound 2, haemanthamin] | 0.81 to 13 | selectivity index compared to the Beas-2B cell line [3]: ≤ 10; cytotoxicity compared with positive control cis-platin [3, 4]: more potent cytotoxicity than one of the positive controls (cis-platin)
4 | CO[C@@H]1C=C[C@@]23c4cc5c(cc4C(=O)O[C@H]2CN(C)[C@H]3C1)OCO5 [Compound 3, 3-epimacronine] | > 10 | 
5 | CO[C@@H]1C=C[C@@]23c4cc5c(cc4CO[C@]2(O)CN(C)[C@H]3C1)OCO5 [Compound 4, (+)-tazettine] | > 10 | 
6 | CO[C@H]1C=C[C@@]23c4cc5c(cc4CN(C)[C@@H]2C(=O)N(C)[C@H]3C1)OCO5 [Compound 5, N-methyl-5,6-dihydroplicane] | > 10 | 
7 | COc1cc2c(c(OC)c1OC)[C@@H](OC)O[C@@H]1CC=C3CCN(C)[C@H]3[C@H]21 [Compound 6, O-methylnerinine] | > 10 | 
8 | CCOC(=O)CCn1c(=O)c2cc3c(cc2c2ccccc21)OCO3 [Compound 7, N-ethoxycarbonylethylcrinasiadine] | > 10 | 
9 | CCOC(=O)CCCn1c(=O)c2cc3c(cc2c2ccccc21)OCO3 [Compound 8, N-ethoxycarbonylpropylcrinasiadine] | > 10 | 
10 | O=c1c2cc3c(cc2c2ccccc2n1CCc1ccccc1)OCO3 [Compound 9, N-phenethylcrinasiadine] | 0.81 to 13 | cytotoxicity compared with positive control cis-platin [3]: more potent cytotoxicity than one of the positive controls (cis-platin); selectivity index compared to the Beas-2B cell line [3]: ≤ 10
11 | CC(C)CCn1c(=O)c2cc3c(cc2c2ccccc21)OCO3 [Compound 10, N-isopentylcrinasiadine] | > 10 | 
12 | Cn1c(=O)c2cc3c(cc2c2ccccc21)OCO3 [Compound 11, N-methylcrinasiadine] | > 10 | 
13 | c1ccc2c(c1)ncc1cc3c(cc12)OCO3 [Compound 12, trisphaeridine] | > 10 | 
14 | CN1Cc2cc3c(cc2-c2ccccc21)OCO3 [Compound 13, 5,6-dihydrobicolorine] | > 10 | 
15 | O[C@H]1[C@H]2c3cc4c(cc3CN3CCC(=C[C@@H]1O)[C@H]23)OCO4 [Compound 14, lycorine] | 0.81 to 13 | selectivity index compared to the Beas-2B cell line [3]: ≤ 10; cytotoxicity compared with positive control cis-platin [3, 4]: more potent cytotoxicity than one of the positive controls (cis-platin)
16 | C/C=C/C=C/C(=O)N1C[C@H](C)NC[C@H]1C [Compound 15, nigragillin] | > 10 | 
